The text below walks through data of article PMC4368603, “Cardiac Contractility Structure-Activity Relationship and Ligand-Receptor Interactions; the Discovery Of Unique and Novel Molecular Switches in Myosuppressin Signaling” (PLoS ONE, 2015).

Several values for one entry are separate records, joined by “and”; a condition that tells them apart may be missing. Equal entries are not always repeated. Square brackets hold non-standard residues; d marks the D form. Ends that are not written are not given here. Peptide text beside a SMILES is read from it. pGlu = O=C1CC[C@@H](C(=O)O)N1

Test [1] relates to R. prolixus heart. Type of test: in vivo, Rhodnius prolixus. The conditions noted are these: for EC50: 5th instar semi-intact preparation, 25 ± 2°C, heart rate as % of saline, non-linear regression, N = 10 animals per condition, read-out: EC50, dose-dependent decrease of R. prolixus heart rate (cardiac contractility). The method, then: R. prolixus were maintained at 28°C under high humidity in a cycle of 12h:12h (L:D). The insects used were 5th instar 2–3 weeks post-ecdysis fed on chicken blood.
Fifth instar R. prolixus were placed ventral surface down on a dish with paraffin wax and dissected under physiological saline. Segments four to seven from the dorsal abdominal cuticle were removed using minuten pins leaving the dorsal vessel exposed. The semi-intact preparation was equilibrated in 20 μl saline for 20 minutes at room temperature (25° ± 2°C), replacing the fluid with fresh saline every five minutes. Heart rate was measured under saline after the final bath, counting the number of contractions in one minute. This counting was replicated three times for each preparation, and the results of the three countings were averaged. After this, the saline was removed and replaced with an equal volume of solution containing a peptide. The heart rate was measured and expressed as % of the control (saline). Ten animals were analyzed for control and for each experiment. The investigator who performed the bioassay was unaware of the peptide structures being tested.
Dose response curves were generated and the effective concentrations at half-maximal response (EC50) values were calculated using a non-linear regression with GraphPad Prism version 6.03. Activities of RhpMS, DrmMS, and analogs were compared to saline, set at 100%, using Single Factor ANOVA to calculate p values; significance was set at p ≤ 0.05.

Test [2] deals with heart. The note with it: cardiac contractility / heart rate SAR; cited from earlier work. The source says: Table 3 DrmMS and analogs: structures and activities. | column: Heart || [6–10]DrmMS was the heart rate active core, yet [4–10]DrmMS was the gut motility active core. […] We believed DrmMS-DrmMS-R1 and DrmMS-DrmMS-R2 interactions would reflect our SAR data. N-terminal truncated and alanyl-substituted analogs (Table 3) were docked to the receptors; additional data are available in Supporting Information. In DrmMS docked to DrmMS-R1 (Fig. 4, Table 4), F7 made multipl ...

In test [3] the test system is gut. The note with it: gut motility SAR; cited from earlier work. The source says:
Table 3 DrmMS and analogs: structures and activities. | column: Gut || [6–10]DrmMS was the heart rate active core, yet [4–10]DrmMS was the gut motility active core. […] We believed DrmMS-DrmMS-R1 and DrmMS-DrmMS-R2 interactions would reflect our SAR data. N-terminal truncated and alanyl-substituted analogs (Table 3) were docked to the receptors; additional data are available in Supporting Information. In DrmMS docked to DrmMS-R1 (Fig. 4, Table 4), F7 made multipl ...

A word on the EC50: it is the midpoint of the concentration-response curve. Regarding `CC[C@H](C)[C@H](NC(=O)[C@H](CC(=O)O)NC(=O)[C@@H]1CCC(=O)N1)C(=O)N[C@@H](CC(=O)O)C(=O)N[C@@H](Cc1c[nH]cn1)C(=O)N[C@H](C(=O)N[C@@H](Cc1ccccc1)C(=O)N[C@@H](CCSC)C(=O)N[C@@H](CCCNC(=N)N)C(=O)N[C@@H](Cc1ccccc1)C(N)=O)C(C)C` [RhpMS] ([pGlu]DIDHVFMRF-NH2), the EC50 in test [1] is 140 nM. The “Heart Rate Mean ± S.E.M., percent of saline” value in test [1] (peptide at 1 μM, saline = 100%, ten animals per experiment) is 4 % of saline and 4 ± 3 % of saline.
As for Y-T(Bpa)VDHVFLRF-NH2 [Y-Bpa2DrmMS], the Heart activity entry in test [2] was “agonist”. Besides, the Gut activity result in test [3] was “agonist”.
Regarding “TDVDHVFARF-NH2 [[A8] DrmMS, alanyl-substituted DrmMS analog […]-NH2]”, the Heart activity result in test [2] is “agonist”. Also, the Gut activity result in test [3] is “inactive”.
In the case of “HVFLRF-NH2 [[5–10]DrmMS, N-terminal truncated DrmMS analog HVFLRF-NH2]”, the Heart activity entry in test [2] is “agonist”. For the same compound, the Gut activity entry in test [3] is on record as “antagonist”.
For TDVDHVFLRF-NH2 [DrmMS], the EC50 in test [1] was 50 nM.
Take DHVFMRF-NH2 [[4–10]RhpMS]: the EC50 in test [1] was found to be 32 nM.
For “DHVFLRF-NH2 [[4–10]DrmMS, N-terminal truncated DrmMS analog DHVFLRF-NH2]”, the Heart activity entry in test [2] is “agonist”. Also, the Gut activity entry in test [3] is “active core”.
With “VFLRF-NH2 [[6–10]DrmMS, N-terminal truncated DrmMS analog VFLRF-NH2]”, in test [2], the Heart activity entry is given as “active core”. For the same compound, the Gut activity entry in test [3] was “inactive”.
Regarding “FLRF-NH2 [[7–10]DrmMS, N-terminal truncated DrmMS analog FLRF-NH2]”, the Heart activity entry in test [2] is “inactive”. Also, the Gut activity result in test [3] is “inactive”.
